Laboratory results taken from PMC7496275, “Pentathiepins: A Novel Class of Glutathione Peroxidase 1 Inhibitors that Induce Oxidative Stress, Loss of Mitochondrial Membrane Potential and Apoptosis in Human Cancer Cells” (Chemmedchem, 2020).

Legend:
HAP-1 cells = assay: MTT cell viability assay; format: cell-based, human
Procedure: (§1) We determined IC50 values for the viability reduction in a low micro molar range (Figure 6B).
(§2) MTT cell viability assay: For the detection of the inhibition of the viability of cells by the pentathiepins, the MTT‐viability assay was used.37 Briefly, 10 000 and 20 000 cells for the suspension cell lines HL‐60 and Gumbus, respectively, were seeded out in 50 μL medium per well and immediately exposed to the compounds. For the adherent cell lines SISO and HAP‐1, 3000 and 5000 cells, respectively, were seeded out in 96‐well plates and allowed to attach for 24 h. Cells were exposed to nine serial dilutions of compound, added to the medium from 1000‐fold concentrated stock solution in DMF. For the controls, cells were exposed to 0.1 % DMF alone. After 48 h incubation, 20 μL of the MTT stock solution (2.5 mg/mL in PBS) were added to each well to give a final concentration of 1.0 mM. The formazan crystals that formed after 4 h at 37 °C were dissolved by sonification after adding 100 μL of 0.04 M HCl in isopropanol for the suspension cell lines, or with 50 μL DMSO after aspiration of the medium for the adherent cell lines. Optical density was measured with a SpectraMax Plus 383 microtiter plate read at λ=570 nm (Molecular Devices, USA). Data of related absorption to control cells were imported into GraphPad Prism 6.0 software and IC50 values were generated by determining the inflection point of the sigmoidal log concentration‐viability inhibition curves.

SISO cells = assay: MTT cell viability assay; format: cell-based, human; details: 48 h
Procedure: as §1, §2

Gumbus cells [1] = assay: MTT cell viability assay; format: cell-based, human; details: 48 h
Procedure: as §1, §2

Gumbus cells [2] = assay: Apoptosis staining with Annexin-V/PI (flow cytometry); format: cell-based, human
Procedure: (§3) To determine whether the loss in viability by 4 is caused by apoptosis, a flow cytometric analysis with Annexin‐V−FITC and PI‐stained cells was used. Early apoptotic cells undergo a translocation of phosphatidyl serine from the inner to the outer cell membrane monitored by Annexin‐V−FITC. Late apoptotic or necrotic cells also show a loss of cell membrane integrity verifiable by PI. Cells were exposed to 4 in multiple concentrations of the viability inhibition IC50 for 6 and 24 h.
(§4) Apoptosis staining with Annexin‐V/PI: For the apoptosis measurement, the translocation of phosphatidyl serine from the inner to the outer membrane by Annexin‐V and PI double staining was used.41 The protocol of the manufacturer (Miltenyi Biotec, Germany) of the “Annexin‐V‐FITC Apoptosis Detection Kit” was followed. In brief, 500,000 cells were seeded into 6‐well plates and exposed to 4 at multiple concentrations of the viability IC50 for 6 and 24 h. Afterwards, the cells were collected in reaction tubes, washed with the binding buffer belonging to the Annexin‐V‐Kit and stained with Annexin‐V‐FITC for 10 min. After repeated washing steps, the PI solution was added to the cells and followed by the flow cytometry investigation analyses at λ ex/em=488/525±50 nm for FITC and λ ex/em=488/655–730 nm for PI with a MACSQuant Analyzer 10 (Miltenyi Biotec).

HL-60 cells = assay: as above; format: cell-based, human; details: multiples of viability IC50, 24 h
Procedure: as §3, §4

[3] = Stability in GPx assay buffer with GSH by RP-HPLC; format: physicochemical
Procedure: It has been reported that pentathiepins are instable in the presence of thiols such as GSH.20 Thus, the stability of a representative pentathiepin, 4, in the presence of GSH was studied first by APCI‐MS. Incubations of 4 in the presence of 10 mM GSH, a biologically relevant concentration, were monitored at 23 °C for a period up to 1 h. […] Next, the stability of 4 was studied by RP‐HPLC in the same buffer and with the same GSH concentration (0.25 mM) used in the GPx assay (see below). Over the course of a 70 min incubation a nearly 30 % loss of the pentathiepin (Figure S32) was observed. However, since the GPx assay is only run for 20 min, the direct reaction between 4 and GSH would only account for a ca. 10 % loss of pentathiepin under assay conditions.
Melting points were determined with a Büchi Melting Point M‐565 or a Büchi 545 (Büchi, Flawil, CH), temperatures are uncorrected. ^1H NMR and ^13C NMR spectra were recorded either with a Bruker Avance II‐300 or an Avance II Ultrashield 400 MHz instrument. Chemical shifts δ are given in ppm and the solvent residual peak (CDCl3: ^1H, δ=7.27; ^13C, δ=77.0 and [D6]DMSO: ^1H, δ=2.50; ^13C, δ=40) was used as an internal standard with the quinoxaline derivatives while TMS was used for the indole derivatives. APCI‐MS (m/z) spectra were recorded on an Advion MS. […]

[4] = Homo sapiens, MTT, read-out: IC50 for viability reduction

- loss of the pentathiepin ([3]; 0.25 mM GSH in GPx assay buffer, 70 min, 23 °C, RP-HPLC): ~30%
- loss of pentathiepin under assay conditions ([3]; 0.25 mM GSH, 20 min GPx assay duration): ca. 10%
SMILES: CCOc1c2c(c3cnc4cc(C)c(C)cc4n13)SSSSS2 [Compound 4]
- cell viability at highest tested concentration (HAP-1 cells; 48 h): complete loss of cell viability
- IC50 (HAP-1 cells; Homo sapiens, HAP1, 48 h, MTT, read-out: IC50 for viability reduction): 2200 to 3100 nM
- cell viability at highest tested concentration (SISO cells): complete loss of cell viability
- IC50 (SISO cells; [4]): 2200 to 3100 nM
- cell viability at highest tested concentration (Gumbus cells [1]): complete loss of cell viability
- IC50 (Gumbus cells [1]; [4]): 2200 to 3100 nM
- apoptotic population (Gumbus cells [2]; fourfold IC50 concentration, 6 h): nearly every cell was apoptotic
- apoptotic population (Gumbus cells [2]; multiples of viability IC50, 6 h): significant increase of an apoptotic population
- apoptotic population (HL-60 cells): significant increase of an apoptotic population
